# Patent publication US20230047825A1, “ANTIMICROBIAL PEPTIDES” (priority 2019, published 2023)
# Where two headings read alike, the source gives them in different places. Where a SMILES comes first, the peptide text is derived from it.
# Tests used:
# [1] = test system: Acinetobacter baumannii AYE; assay type: cell-based; settings: AYE
# [2] = test system: Pseudomonas aeruginosa PA01; experiment: Antibacterial activity assay (broth microdilution MIC); assay type: cell-based
# human red blood cells = experiment: Haemolysis assay; settings: red cells of human, 1 h
# Description: Haemolysis assay. Haemolysis was tested by incubating titrations of AMPs in PBS with freshly collected human red blood cells for 1 hour at 37 C. Control wells were treated with 0.1% Triton-X-100 to ensure complete lysis, or PBS-only to represent no lysis. Samples were spun down to remove non-lysed cells and the OD^550 of the supernatant was measured using a Clariostar plate reader. The percentage of haemolysis was calculated as % haemolysis=(AP−AB)/(AC−AB)×100, where AP is the absorbance value for a known peptide concentration, AC is the absorbance of the 0.1% Triton-X-100 control, AB is the absorbance of the PBS control. Data presented are averages and standard error from three biological replicate experiments.
# Methods: The natural AMP (termed AMP1) was modified to produce synthetic variants, AMPs 1a, 2a, 2b, 3a and 3b. Minimum inhibitory concentrations (MICs) were determined using the microbroth dilution assay with Mueller Hinton broth (MHB) or RPMI (with 5% FBS) and stability in serum was tested by conducting MICs in MHB containing 10% FBS. Synergy experiments were performed following a checkerboard protocol. Cytotoxicity was tested against HEK293 and HeLa immortalised human cell-lines using the XTT viability stain and by quantifying haemolysis of human red blood cells. Patch clamp analysis was performed using the Port-a-Patch® automated patch-clamp system on DPhPE/DPhPG (model for a Gram-negative plasma membrane) or DPhPG (Gram-positive) model membranes challenged with peptide. The murine lung infection model was performed using the agar bead model with Staphylococcus aureus strain NCTC 13616 (EMRSA-15).
# HeLa = experiment: Cytotoxicity assay (XTT); assay type: cell-based, human; design: Toxicity HeLa: unit not given beside the values
# Description: (§1) Cytotoxicity assay. HeLa and HEK293 cell lines were purchased from ECACC and cultured in Eagle's Minimum Essential Media (EMEM) containing glutamine, supplemented with 10% FBS and 1× non-essential amino acids (NEAA) at 37° C., 10% CO2. Cytotoxicity was measured by incubating starter cultures of cells for 24 hours in a 96 well plate, gently removing the supernatant and replacing it with dilutions of peptides and controls, incubating for a further 24 hours and then staining of the cells with the second generation tetrazolium dye, XTT. […]
# [3] = test system: EMR Staphylococcus aureus-15 (EMRSA-15); assay type: cell-based
# [4] = test system: VS Enterococcus faecalis NCTC 775; experiment: Antibacterial activity assay (broth microdilution MIC); assay type: cell-based
# [5] = test system: Klebsiella pneumoniae NCTC 13368; assay type: cell-based; settings: KP13368, in µg/mL
# HEK293 = experiment: Cytotoxicity assay (XTT); assay type: cell-based, human
# Description: as §1
# [6] = test system: Pseudomonas aeruginosa NCTC 13437; experiment: Antibacterial activity assay (broth microdilution MIC); assay type: cell-based; settings: PA13437, in µg/mL
# [7] = test system: Acinetobacter baumannii ATCC 17978; assay type: cell-based; settings: in µg/mL; for MIC, Stability in serum (MH): Ab17978
# C. albicans = experiment: MIC on initial panels, fungi; assay type: cell-based; settings: unit inferred
# A549 = experiment: Cytotoxicity assay; assay type: cell-based; settings: value printed in parentheses
# [8] = test system: MS Staphylococcus aureus ATCC 9144; assay type: cell-based; settings: MSSA9144
# [9] = test system: Escherichia coli NCTC 12923; assay type: cell-based; settings: EC12923
# VRE12201 = experiment: Antibacterial activity assay (broth microdilution MIC); assay type: cell-based, Enterococcus faecalis; settings: medium and unit inferred
# Source text: (§2) Antibacterial activity assay.
# The bacterial strains used are as in the above examples. A table of strains is provided below to aid understanding.
# [10] = test system: VR Enterococcus faecium NCTC 12204; experiment: as above; assay type: cell-based; settings: VRE12204, in µg/mL
# P. aeruginosa RP73 = experiment: as above; assay type: cell-based, Pseudomonas aeruginosa; settings: in µg/mL
# Description: as §2
# Synergy experiments were performed following a checkerboard protocol.
# Klebsiella pneumoniae M6 = assay type: cell-based
# Calu-3 = experiment: Cytotoxicity assay; assay type: cell-based; settings: value printed in parentheses
# [11] = test system: EMR Staphylococcus aureus-16 (EMRSA-16); assay type: cell-based; settings: EMRSA16
# [12] = medium and unit not given, in µg/mL
# [13] = untitled table, medium/unit not given, values match RPMI of Table 2, in µg/mL
# [14] = untitled table, medium/unit inferred, values match RPMI of Table 2
# [15] = untitled table, medium/unit not given, values match RPMI of Table 2
compound,measurement,setting,value
CC(C)C[C@@H](NC(=O)[C@@H](Cc1ccc(O)cc1)NC(=O)[C@@H](Cc1c[nH]cn1)NC(=O)[C@H](NC(=O)[C@@H](CC(C)C)NC(=O)[C@@H](C)NC(=O)[C@@H](C)NC(=O)[C@@H](CCCCN)NC(=O)CNC(=O)[C@@H](C)NC(=O)[C@@H](Cc1c[nH]cn1)NC(=O)[C@@H](CCCCN)NC(=O)CNC(=O)[C@@H](C)NC(=O)[C@@H](Cc1c[nH]cn1)NC(=O)[C@@H](C)NC(=O)[C@@H](C)NC(=O)[C@@H](CCCCN)NC(=O)[C@@H](CCCCN)NC(=O)[C@@H](Cc1ccccc1)NC(=O)[C@@H](Cc1ccccc1)NC(=O)[C@@H](CO)NC(=O)CNC(=O)[C@@H](Cc1c[nH]c2ccccc12)NC(=O)CN)[C@H](C)O)C(N)=O [D-pleurocidin-VA] (HELM PEPTIDE1{G.[dW].G.[dS].[dF].[dF].[dK].[dK].[dA].[dA].[dH].[dA].G.[dK].[dH].[dA].G.[dK].[dA].[dA].[dL].[dT].[dH].[dY].[dL].[am]}$$$$V2.0; N-terminus assumed),"MIC, Stability in serum (MH)",[1]; No serum,1 µg/mL
same,"MIC, Stability in serum (MH)",[1]; Serum (10% fetal bovine serum),2 µg/mL
same,MIC on initial panels,[1]; [12],1
same,MIC,[1]; [13],8-32
same,"MIC, Stability in serum (MH)","[2]; No serum, in µg/mL",4
same,"MIC, Stability in serum (MH)","[2]; Serum (10% fetal bovine serum), in µg/mL",16
same,MIC on initial panels,[2]; [12],4
same,MIC,[2]; [14],32 µg/mL
same,"Toxicity HC50, Peptide concentration",human red blood cells,>>400 μg/ml
same,Toxicity HeLa,HeLa; unit not given,198.2 ± 10.2
same,"Toxicity HeLa (EC50), Peptide concentration",HeLa; value printed in parentheses,(198.2 ± 10.2) μg/ml
same,"MIC, Peptide concentration",[3]; EMR -15 (EMRSA-15),8 µg/mL
same,MIC on initial panels,"[3]; EMRSA15, medium and unit inferred",32 µg/mL
same,MIC,"[3]; EMRSA15, untitled table, medium/unit inferred, values match RPMI of Table 2",8 µg/mL
same,"MIC, Peptide concentration",[3]; Mueller-Hinton broth,32 µg/mL
same,"MIC, Peptide concentration",[4]; Mueller-Hinton broth,64 (NG) μg/ml
same,MIC on initial panels,"[4]; VSE775, medium and unit not given, in µg/mL",64
same,"MIC, Stability in serum (MH)",[5]; No serum,8
same,"MIC, Stability in serum (MH)",[5]; Serum (10% fetal bovine serum),8-32
same,MIC on initial panels,[5]; medium and unit not given,8
same,MIC,[5]; [15],32
same,Toxicity HEK293,HEK293; unit not given,217.3 ± 46.5
same,"Toxicity HEK293 (EC50), Peptide concentration",HEK293; value printed in parentheses,(217.3 ± 46.5) μg/ml
same,"MIC, Stability in serum (MH)",[6]; No serum,32
same,"MIC, Stability in serum (MH)",[6]; Serum (10% fetal bovine serum),32
same,MIC on initial panels,[6]; medium and unit not given,32
same,MIC,[6]; [15],>32
same,MIC on initial panels,"[7]; AB17978, medium and unit not given",1
same,MIC,"[7]; AB17978, untitled table, medium/unit not given, values match RPMI of Table 2",16
same,"MIC, Stability in serum (MH)",[7]; No serum,1
same,"MIC, Stability in serum (MH)",[7]; Serum (10% fetal bovine serum),2-16
same,"MIC on initial panels, Fungi",C. albicans,8 µg/mL
same,"Toxicity A549 (EC50), Peptide concentration",A549,(>250) μg/ml
same,MIC on initial panels,[8]; medium and unit inferred,4 µg/mL
same,MIC,[8]; [13],8
same,"MIC, Stability in serum (MH)",[9]; No serum,1 µg/mL
same,"MIC, Stability in serum (MH)",[9]; Serum (10% fetal bovine serum),1 µg/mL
same,MIC on initial panels,[9]; [12],1
same,MIC,[9]; [13],8
same,MIC on initial panels,VRE12201,128 µg/mL
same,MIC on initial panels,[10]; medium and unit not given,16
same,MIC,[10]; [15],32-64
same,MIC on initial panels,P. aeruginosa RP73; medium and unit not given,16-64
same,MIC,"P. aeruginosa RP73; untitled table, medium/unit not given",32-64
same,"MIC, Stability in serum (MH)",Klebsiella pneumoniae M6; No serum,4 µg/mL
same,"MIC, Stability in serum (MH)",Klebsiella pneumoniae M6; Serum (10% fetal bovine serum),8 µg/mL
same,MIC on initial panels,Klebsiella pneumoniae M6; [12],4
same,MIC,Klebsiella pneumoniae M6; [13],32
same,"Toxicity Calu-3 (EC50), Peptide concentration",Calu-3,(>250) μg/ml
same,MIC on initial panels,[11]; [12],64
same,MIC,[11]; [14],32 µg/mL
